Among the test systems are SR leukemia; COLO 205 colon; LOX IMVI melanoma; HOP-62 NSCLC; NCI-H23 lung; CAKI-1 renal; T-47D breast; PC-3 prostate; NCI-H460 lung; KM12 colon.
Test in all cases: NCI anticancer screen, dose series, 48 h

“And” between values parts separate entries of the source, which are not always exact repeats. Equal entries are not always repeated.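 Each compound was tested at five concentrations against cells in 96-well plates for 48 hours. GI50 is the concentration that inhibits growth by half. TGI is the concentration that stops growth completely.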

Take `CCCCC(=C=C1CCCCC1O)C1CCCN1C(=O)OC(C)(C)C` (stereo not drawn): the TGI in the assay with SR leukemia was above 100 µM; with COLO 205 colon, 43.8 µM; in the assay on LOX IMVI melanoma, 32.3 µM; with HOP-62 NSCLC, 31.7 µM; in the assay on NCI-H23 lung, 32.4 µM; with CAKI-1 renal, 24.4 µM. Also, the TGI in the assay with T-47D breast stood at 29.8 µM; in the assay on PC-3 prostate, 29.6 µM; in the assay with NCI-H460 lung, 31 µM; in the assay with KM12 colon, 31.5 µM.
As for `COC1(OC)N=C(N)C2(C#N)/C(=N/N(C)C)CC(C)C12C#N` (stereo not drawn), the TGI in the assay with SR leukemia, with COLO 205 colon, in the assay with LOX IMVI melanoma, in the assay with HOP-62 NSCLC, in the assay with NCI-H23 lung and in the assay on CAKI-1 renal was above 100 µM in each case. For the same molecule, the TGI in the assay with T-47D breast, in the assay with PC-3 prostate and with KM12 colon was above 100 µM throughout.
`COC(=O)C1(Cc2ccccc2)Cc2ccccc2C1=O` (stereo not drawn): the TGI with SR leukemia was 78.3 µM; in the assay with COLO 205 colon, above 100 µM; in the assay with LOX IMVI melanoma it was above 100 µM; in the assay with HOP-62 NSCLC, above 100 µM; in the assay on NCI-H23 lung, above 100 µM; in the assay with CAKI-1 renal, above 100 µM. The TGI with T-47D breast, in the assay with PC-3 prostate, in the assay with NCI-H460 lung and in the assay with KM12 colon was above 100 µM in each case.
For `CC(=O)Nc1ncc2c(n1)-c1ccccc1OC2`, the TGI in the assay on SR leukemia, with COLO 205 colon, with LOX IMVI melanoma, with NCI-H23 lung, with CAKI-1 renal and in the assay on T-47D breast was above 100 µM throughout. The TGI in the assay on PC-3 prostate, in the assay with NCI-H460 lung and in the assay with KM12 colon was above 100 µM throughout.
For the molecule `COc1ccc(C=O)cc1Oc1ccc(C[C@H]2c3c(cc(OC)c4c3Oc3cc5c(cc3O4)CCN(C)C5=O)CCN2C)cc1`, the TGI in the assay with SR leukemia was 21.7 µM; in the assay with COLO 205 colon it was above 50 µM; with LOX IMVI melanoma it was 21.8 µM; in the assay on HOP-62 NSCLC, 15.1 µM; in the assay with NCI-H23 lung, 16 µM; with CAKI-1 renal it was above 50 µM. The TGI with T-47D breast is above 50 µM; in the assay with PC-3 prostate, 17.5 µM; in the assay with NCI-H460 lung, 16 µM; with KM12 colon, 17.1 µM.
With `O=C1N2CCc3c([nH]c4ccccc34)C23CC2CCCC12S3` (stereo not drawn), the TGI in the assay on SR leukemia, in the assay with COLO 205 colon, in the assay on LOX IMVI melanoma, in the assay on HOP-62 NSCLC, in the assay on NCI-H23 lung and with CAKI-1 renal was above 50 µM in each case. In addition, the TGI with T-47D breast, with PC-3 prostate and in the assay with KM12 colon was above 50 µM in each case.
Turning to `COC(=O)CCc1ccc2c(c1)CC1(C2)Cc2ccc(CCC(=O)OC)cc2C1`, the TGI with SR leukemia was 61.5 µM; with COLO 205 colon it was above 100 µM; in the assay on LOX IMVI melanoma, 97.1 µM; in the assay on HOP-62 NSCLC it was above 100 µM; in the assay with NCI-H23 lung, above 100 µM; in the assay with T-47D breast, above 100 µM. Further, the TGI with PC-3 prostate and in the assay with KM12 colon was above 100 µM in each case.
As to `COc1cc(O)c2c(c1)C(O)C(O)CC1OC1C(=O)/C=C/CC(C)OC2=O` (stereo not drawn), the TGI with SR leukemia is above 45.4 µM; in the assay with COLO 205 colon it was 16.1 µM; in the assay with LOX IMVI melanoma it was 16.2 µM; in the assay with HOP-62 NSCLC, 44.3 µM; with NCI-H23 lung, 12 µM; in the assay on CAKI-1 renal, 11.5 µM. For the same molecule, the TGI in the assay on T-47D breast was determined as 30.4 µM; in the assay with PC-3 prostate, 24.9 µM; with NCI-H460 lung, 25.6 µM; with KM12 colon, 27.1 µM.
For `COc1ccc([C@@]23CCC(=O)C[C@@H]2N(C)CC3)cc1OC`, the TGI with SR leukemia, in the assay with COLO 205 colon, in the assay with LOX IMVI melanoma, in the assay with HOP-62 NSCLC, in the assay on NCI-H23 lung and in the assay on CAKI-1 renal was above 100 µM in each case. Also, the TGI with T-47D breast, in the assay with PC-3 prostate, with NCI-H460 lung and with KM12 colon was above 100 µM throughout.
As to `O=C(O)CNC(=O)c1cccc2c(=O)c3ccccc3[nH]c12`, the TGI with SR leukemia, in the assay with COLO 205 colon, with LOX IMVI melanoma, with HOP-62 NSCLC, in the assay with NCI-H23 lung and in the assay on CAKI-1 renal was above 100 µM throughout. For the same molecule, the TGI in the assay on T-47D breast was above 100 µM; in the assay with PC-3 prostate, above 100 µM; in the assay with NCI-H460 lung, above 100 µM; in the assay with KM12 colon, above 86.4 µM.
With `COC1=CC2(C=CC1=O)CCN=c1c(O)c3c(c(O)c12)=NC=N3` (stereo not drawn), the TGI with SR leukemia, in the assay with COLO 205 colon, in the assay with LOX IMVI melanoma, with HOP-62 NSCLC, in the assay on NCI-H23 lung and in the assay with CAKI-1 renal was above 100 µM in each case. In addition, the TGI with T-47D breast, with PC-3 prostate, with NCI-H460 lung and in the assay on KM12 colon was above 100 µM each time.
For the molecule `CC(C)CC1c2[nH]c3ccccc3c2C[C@H]2C(=O)NC(COC(C)(C)C)C(=O)N12` (stereo partly drawn), the TGI is 46.2 µM in the assay on SR leukemia; 38.8 µM in the assay on COLO 205 colon; 34.7 µM with LOX IMVI melanoma; 79.3 µM in the assay with HOP-62 NSCLC; 91.3 µM in the assay with NCI-H23 lung; 79.5 µM with CAKI-1 renal. Besides, the results for the TGI in the assay with T-47D breast, with PC-3 prostate and in the assay on KM12 colon were 43.4 µM, 55.1 µM and 80.2 µM, respectively.
As to `COc1ccc(-c2c(C(C)=O)c(C)n(C3OC(CO)C(O)C(O)C3O)c(=S)c2C#N)cc1` (stereo not drawn), the TGI with SR leukemia, in the assay on COLO 205 colon, in the assay on LOX IMVI melanoma, in the assay on HOP-62 NSCLC, in the assay with NCI-H23 lung and in the assay on CAKI-1 renal was above 100 µM each time. For the same molecule, the TGI with T-47D breast, with PC-3 prostate, in the assay with NCI-H460 lung and in the assay on KM12 colon was above 100 µM each time.
As for `C=CCN1C(=O)/C(=C/c2ccc(Cl)cc2)N=C1SC1OC(COC(C)=O)C(OC(C)=O)C(OC(C)=O)C1OC(C)=O` (stereo not drawn), the TGI is > 100 µM and 36.6 µM in the assay on SR leukemia; above 100 µM with COLO 205 colon; > 100 µM and 89.8 µM in the assay on LOX IMVI melanoma; 20.6 µM and 62.6 µM in the assay with HOP-62 NSCLC; > 100 µM and 76.2 µM with NCI-H23 lung; 28.3 µM and > 100 µM with CAKI-1 renal. The TGI in the assay with T-47D breast is 36.9 µM; in the assay with PC-3 prostate it was above 100 µM; in the assay with NCI-H460 lung it was 36.2 µM and > 100 µM; in the assay with KM12 colon, above 100 µM. The GI50 in the assay with COLO 205 colon is > 89.5 µM and 31.9 µM; with HOP-62 NSCLC it was 5.66 µM and 21.9 µM; in the assay with PC-3 prostate it was 9.17 µM and 31 µM; with NCI-H460 lung, 8.11 µM and 31.5 µM.

These data come from PubChem BioAssay (NCI).
